Experimental data from patent publication US20260365696A1, “INHIBITORS OF PTP1B / NCK1 INTERACTION AND METHODS OF MAKING AND USING SAME” (Radella Pharmaceuticals LLC, priority 2023, published 2026).

Molecular target: T1, SH3-2 domain of NCK1 (Homo sapiens, UniProt P16333)
T1 construct: To amplify the NCK1 SH3-2 domain, the primers; 10xHis tag with TEV site (vector pSF-OXB20-NH2-10HIS) (N, cleaved yes); made in house; host or cells: E. coli C43(DE3)
Assay: Isothermal titration calorimetry (ITC) binding to NCK1 SH3-2 domain
Details: ITC, 25 °C, pH 8.0
Text: Human PTP1B cDNA (NM_002827) and human NCK1 cDNA (NM 006153) were obtained (Origene, MD, USA). PTP1B Primers were designed to amplify the ORFs with added homology to the cut vector (EcoRI-digested pSF-OXB20-NH2-10HIS) in the forward primer sequence. To amplify full-length PTP1B, the primers ptp1b_FL_fwd ([…]) (SEQ ID NO: 159) and ptp1b_FL_rev ([…]) (SEQ ID NO: 160) were used. To amplify truncations of PTP1B, the following primer pairs were used: ptp1b_FL-Fwd and one of Ptplb_323stop_rev (gtgcaggaggagttcgaatt[…]) (SEQ ID NO: 161), ptp1b_344stop_rev ([…]) (SEQ ID NO: 162) or ptp1b_278stop_rev([…]) (SEQ ID NO: 163). To amplify the NCK1 SH3-2 domain, the primers ncklsh32_fwd ([…]) (SEQ ID NO: 164) and ncklsh32_rev ([…]) (SEQ ID NO: 165) were used. The amplified fragments were purified using a DNA clean-up kit according to manufacturer's instructions (QIAquick PCR purification kit, Qiagen).
To produce and purify fusion proteins, a culture was inoculated with 1% of overnight-cultured inoculum. Protein expression was carried out under the conditions described above, scaled up as necessary. Cells expressing the recombinant proteins were harvested in 50 mL tubes by centrifugation and stored at −80 °C. Cells containing the expressed gene product were thawed over ice and resuspended in Extraction buffer (10 mM Tris, pH 7.4 or 10 mM Sodium Phosphate, pH 8.0; 300 mM NaCl, 1 mM DTT or TCEP; 0-10% glycerol and 1 μg lysozyme) and sonicated over ice (4 °C) for 3 min total using pulses of 5 s with 15 s intervals, using a wide probe at 15 amplitude microns (Soniprep 150, MSE). Insoluble material was removed from the lysate by centrifugation at 20K rpm for 20-60 min at 4 °C. Supernatant was filtered through a 0.22 μm PVDF filter membrane and applied to 1-2 5 mL HisTrap FF Crude (Cytiva) prepacked Ni columns and connected to an AKTA explorer. After thorough washing with binding buffer (10 mM Tris, pH 7.4 or 10 mM Sodium Phosphate, pH 8.0; 300 mM NaCl; 1 mM DTT or TCEP and 25 mM Imidazole), protein was eluted using elution buffer (10 mM Tris, pH 7.4 or 10 mM Sodium Phosphate, pH 8.0; 150-300 mM NaCl; 1 mM DTT or TCEP and 250 mM Imidazole). Fractions containing protein of interest were confirmed by SDS PAGE. Protein was diluted with GF buffer (10 mM Tris, pH 7.4 or 10 mM Sodium Phosphate, pH 8.0; 150-300 mM NaCl) and subjected to TEV protease treatment overnight at 4-10 °C. Following proteolytic digestion, HIS-tag and TEV protease were removed by filtration through a clean 5 mL HisTrap FF Crude (Cytiva) prepacked Ni column. Protein was concentrated on a PES ultrafiltration device by centrifugation at 4000 rpm at 4 °C, and protein was polished via a HiPrep S-100 26/60 (Cytiva) using GF buffer (as described above). Purified proteins were concentrated using ultrafiltration, and protein concentration was determined using ultraviolet-visible spectroscopy. The integrity and identity of all proteins were verified by mass spectrographic analysis.
Isothermal titration calorimetry (ITC) was used to determine binding affinities for peptides against the SH3-2 domain of NCK1. Experiments were conducted at 25 °C using either a MicroCal iTC200 or MicroCal PEAQ-ITC calorimeter. The buffer used for all ITC experiments was 10 mM sodium [COMPOUND LEFT OUT] mM sodium chloride (pH=8.0). A series of peptides (concentration 3-7.5 mM) were titrated in to NCK1 SH3-2 domain (concentration 0.125-0.3 mM) using the following conditions: one injection of 0.2 μL followed by 19 injections of 2 μL, 120-150 seconds spacing between injections, at 25 °C. The data were fit using analysis software provided by the manufacturer and affinity values were calculated. The best fitting occurred when the number of sites was between 0.8 and 1.2. The experiments were repeated twice for a total of three times, and the average binding affinity for each peptide was generated. […]

[1] = Alanine scanning of the MD17 15-mer peptide
[2] = substitutions at position 3 of MD18
[3] = Sliding window peptide analysis
[4] = N- or C-terminal extensions, 30-mers tested one to three times

Row | Substance | Kd [1] [µM] | Kd [2] [µM] | also measured
1 | Ac-PAVPPRP-NH2 [MH082, Ac-PAVPPRP-NH2, reference compound] |  |  | Kd (exemplary control peptides): > 1000 µM
2 | Ac-PEHIPPPPRPPKR-NH2 [MH029] |  |  | Kd (Peptide truncation analysis): ≤ 300 µM
3 | Ac-PPCPPKR-NH2 [MH061, Ac-PPCPPKR-NH2] |  | ≤ 300 | 
4 | Ac-PPDPPKR-NH2 [MH084, Ac-PPDPPKR-NH2] |  | ≤ 300 | 
5 | Ac-PPEHIP-NH2 [MH040, Ac-PPEHIP-NH2] |  |  | Kd [3]: > 1000 µM
6 | Ac-PPEHIPPPPRPPKR-NH2 [MH030] |  |  | Kd (Peptide truncation analysis): ≤ 300 µM
7 | Ac-PPEPPKR-NH2 [MH058, Ac-PPEPPKR-NH2] |  | ≤ 300 | 
8 | Ac-PPFPPKR-NH2 [MH066, Ac-PPFPPKR-NH2] |  | ≤ 300 | 
9 | Ac-PPHPPKR-NH2 [MH057, Ac-PPHPPKR-NH2] |  | ≤ 300 | 
10 | Ac-PPKPPKR-NH2 [MH055, Ac-PPKPPKR-NH2] |  | ≤ 300 | 
11 | Ac-PPNPPKR-NH2 [MH060, Ac-PPNPPKR-NH2] |  | ≤ 300 | 
12 | Ac-PPPEHIPPAPRPPKR-NH2 [MH001] | ≤ 300 |  | 
13 | Ac-PPPEHIPPPARPPKR-NH2 [MH002] | > 1000 |  | 
14 | Ac-PPPEHIPPPPAPPKR-NH2 [MH003] | ≤ 300 |  | 
15 | Ac-PPPEHIPPPPRAPKR-NH2 [MH004] | ≤ 300 |  | 
16 | Ac-PPPEHIPPPPRPAKR-NH2 [MH005] | > 1000 |  | 
17 | Ac-PPPEHIPPPPRPPAR-NH2 [MH006] | ≤ 300 |  | 
18 | Ac-PPPEHIPPPPRPPKA-NH2 [MH007] | > 1000 |  | 
19 | Ac-PPPEHIPPPPRPPKRILE-NH2 [MH077] |  |  | Kd [4]: ≤ 300 µM
20 | Ac-PPPEHIPPPPRPPKRILEPH-NH2 [MH089] |  |  | Kd [4]: ≤ 300 µM
21 | Ac-PPPEHIPPPPRPPKRILEPHNGKCR-NH2 [MH134] |  |  | Kd [4]: ≤ 300 µM
22 | Ac-PPPEHIPPPPRPPKRILEPHNGKCREFFPN-NH2 [MH137] |  |  | Kd [4]: ≤ 300 µM
23 | Ac-PPPPRP-NH2 [MH037, Ac-PPPPRP-NH2] |  |  | Kd [3]: > 1000 µM

Second part, led by results:

Row | Kd [1] [µM] | Kd [2] [µM] | Substance | also measured
24 | ≤ 300 |  | Ac-PPAEHIPPPPRPPKR-NH2 [MSJ014] | 
25 |  | 600 to 1000 | Ac-PPGPPKR-NH2 [MH092, Ac-PPGPPKR-NH2] | 
26 |  | ≤ 300 | Ac-PPIPPKR-NH2 [MH096, Ac-PPIPPKR-NH2] | 
27 |  | ≤ 300 | Ac-PPLPPKR-NH2 [MH100, Ac-PPLPPKR-NH2] | 
28 |  | ≤ 300 | Ac-PPMPPKR-NH2 [MH110, Ac-PPMPPKR-NH2] | 
29 | ≤ 300 |  | Ac-PPPAHIPPPPRPPKR-NH2 [MSJ015] | 
30 | ≤ 300 |  | Ac-PPPEAIPPPPRPPKR-NH2 [MSJ016] | 
31 | ≤ 300 |  | Ac-PPPEHAPPPPRPPKR-NH2 [MSJ017] | 
32 | ≤ 300 |  | Ac-PPPEHIAPPPRPPKR-NH2 [MSJ018] | 
33 | ≤ 300 |  | Ac-PPPEHIPAPPRPPKR-NH2 [MSJ019] | 
34 |  | ≤ 300 | Ac-PPPPPKR-NH2 [MH106, Ac-PPPPPKR-NH2] | 
